Results taken from PubChem BioAssay AID248 (DTP/NCI, 2004).
Values joined by “and” are separate entries in the source; they are usually repeats but may differ in a detail not shown here. Identical values can stand only once. Toxic doses and inconclusive results are not listed. Cut-off read from the data, not from the text of the source: active = T/C of 150% or more; inactive = T/C below 125%.

Tested on: L1210 leukemia ip in BDF1 mice, survival T/C
Assay: NCI In Vivo Anticancer Drug Screen. Data for tumor model L1210 Leukemia (intraperitoneal) in B6D2F1 (BDF1) mice
Conditions: endpoint: mean survival time, higher = longer survival
Procedure, shortened: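 Tumor cells were implanted, animals were treated, and survival was followed. The result divides the treated measurement by the vehicle-control measurement.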

[1] = dose: 100.0 mg/kg/injection, schedule: Q01DX001 (ip), vehicle: other
[2] = dose: 200.0 mg/kg/injection, schedule: Q01DX001 (ip), vehicle: other
[3] = dose: 400.0 mg/kg/injection, schedule: Q01DX001 (ip), vehicle: other
[4] = dose: 100.0 mg/kg/injection, schedule: Q01DX009 (ip), vehicle: water
[5] = dose: 100.0 mg/kg/injection, schedule: Q04DX003 (ip), vehicle: water
[6] = dose: 200.0 mg/kg/injection, schedule: Q04DX003 (ip), vehicle: water
[7] = dose: 100.0 mg/kg/injection, schedule: Q04DX003 (ip), vehicle: saline
[8] = dose: 200.0 mg/kg/injection, schedule: Q04DX003 (ip), vehicle: saline
[9] = dose: 100.0 mg/kg/injection, schedule: Q01DX009 (ip), vehicle: Klucel (hydroxypropylcellulose) (HPC)
[10] = dose: 200.0 mg/kg/injection, schedule: Q01DX009 (ip), vehicle: Klucel (hydroxypropylcellulose) (HPC)
[11] = dose: 400.0 mg/kg/injection, schedule: Q01DX009 (ip), vehicle: Klucel (hydroxypropylcellulose) (HPC)
[12] = dose: 200.0 mg/kg/injection, schedule: Q01DX001 (ip), vehicle: carboxymethylcellulose (CMC)
[13] = dose: 100.0 mg/kg/injection, schedule: Q01DX001 (ip), vehicle: saline
[14] = dose: 200.0 mg/kg/injection, schedule: Q01DX001 (ip), vehicle: saline
[15] = dose: 400.0 mg/kg/injection, schedule: Q01DX001 (ip), vehicle: saline
[16] = dose: 400.0 mg/kg/injection, schedule: Q04DX003 (ip), vehicle: saline
[17] = dose: 50.0 mg/kg/injection, schedule: Q01DX009 (ip), vehicle: saline
[18] = dose: 100.0 mg/kg/injection, schedule: Q01DX009 (ip), vehicle: saline
[19] = dose: 200.0 mg/kg/injection, schedule: Q01DX009 (ip), vehicle: saline
[20] = dose: 100.0 mg/kg/injection, schedule: Q01DX009 (ip), vehicle: saline with Tween-80

Measured: T/C

CC(=O)Nc1ccc(NC(=O)c2ccc(C(=O)Nc3ccc(NC(C)=O)cc3)cc2)cc1
inactive: [1] 98 % of control | [2] 93 % of control | [3] 96 % of control

O=C(O)CNCc1ccc(Cl)cc1
inactive: dose: 12.5 mg/kg/injection, schedule: Q01DX009 (ip), vehicle: water 104 % of control | dose: 25.0 mg/kg/injection, schedule: Q01DX009 (ip), vehicle: water 96 % of control | dose: 50.0 mg/kg/injection, schedule: Q01DX009 (ip), vehicle: water 104 % of control and 91 % of control | [4] 100 % of control | dose: 100.0 mg/kg/injection, schedule: Q01DX Z (ip), vehicle: saline 111 % of control | [5] 88 % of control | dose: 200.0 mg/kg/injection, schedule: Q01DX Z (ip), vehicle: saline 100 % of control | [6] 92 % of control

O=C(Nc1cccc(C(F)(F)F)c1)Nc1c(Oc2ccc(Cl)c(Cl)c2)ccc(Cl)c1S(=O)(=O)O
inactive: [7] 103 % of control | [8] 94 % of control

COc1ccc(OC)c(NC(=O)Nc2cccc(C(C)=O)c2)c1
inactive: [9] 96 % of control | [10] 106 % of control | [11] 102 % of control

Cc1cc(/C=N/Nc2ccc3cccc(O)c3n2)c(O)c2ncccc12
inactive: [12] 93 % of control

ClC(Cl)C(Cl)(Cl)C(Cl)(Cl)Cl
inactive: dose: 50.0 mg/kg/injection, schedule: Q01DX009 (ip), vehicle: Klucel (hydroxypropylcellulose) (HPC) 96 % of control | [9] 94 % of control | dose: 100.0 mg/kg/injection, schedule: Q04DX003 (ip), vehicle: Klucel (hydroxypropylcellulose) (HPC) 95 % of control | [10] 98 % of control | dose: 200.0 mg/kg/injection, schedule: Q04DX003 (ip), vehicle: Klucel (hydroxypropylcellulose) (HPC) 108 % of control

CCCc1cn(C2OC(=O)c3ccccc32)c2ccccc12 (stereo unspecified)
inactive: [13] 96 % of control | [7] 109 % of control | [14] 105 % of control | [8] 97 % of control | [15] 102 % of control | [16] 101 % of control

CCOc1nc(SCC)ncc1C
inactive: [4] 107 % of control | [5] 101 % of control | dose: 200.0 mg/kg/injection, schedule: Q01DX009 (ip), vehicle: water 106 % of control | [6] 95 % of control | dose: 400.0 mg/kg/injection, schedule: Q04DX003 (ip), vehicle: water 103 % of control

O=C(O)c1ccccc1C(=O)c1ccccc1
inactive: dose: 100.0 mg/kg/injection, schedule: Q01DX001 (ip), vehicle: Klucel (hydroxypropylcellulose) (HPC) 97 % of control | dose: 200.0 mg/kg/injection, schedule: Q01DX001 (ip), vehicle: Klucel (hydroxypropylcellulose) (HPC) 97 % of control | dose: 400.0 mg/kg/injection, schedule: Q01DX001 (ip), vehicle: Klucel (hydroxypropylcellulose) (HPC) 95 % of control

O=C1NC(=O)C(CCI)(CCI)C(=O)N1
inactive: dose: 100.0 mg/kg/injection, schedule: Q01DX001 (ip), vehicle: carboxymethylcellulose (CMC) 103 % of control | [12] 98 % of control | dose: 400.0 mg/kg/injection, schedule: Q01DX001 (ip), vehicle: carboxymethylcellulose (CMC) 109 % of control

OC(CBr)C(O)CBr (stereo unspecified)
inactive: dose: 12.5 mg/kg/injection, schedule: Q01DX009 (ip), vehicle: saline 101 % of control | dose: 25.0 mg/kg/injection, schedule: Q01DX009 (ip), vehicle: saline 97 % of control | [17] 97 % of control

NCCOP(=O)(O)O
inactive: [17] 95 % of control | [18] 98 % of control | [19] 106 % of control

COc1c(NC(=O)c2cccc(C(=O)Nc3cccc([N+](=O)[O-])c3OC)c2)cccc1[N+](=O)[O-]
inactive: [9] 96 % of control | [10] 89 % of control | [11] 92 % of control

NC(N)=N/N=C/C(=N\N=C(N)N)C(O)CO (stereo unspecified)
inactive: dose: 75.0 mg/kg/injection, schedule: Q01DX001 (ip), vehicle: saline 109 % of control and 100 % of control | dose: 150.0 mg/kg/injection, schedule: Q01DX001 (ip), vehicle: saline 105 % of control and 106 % of control | dose: 300.0 mg/kg/injection, schedule: Q01DX001 (ip), vehicle: saline 101 % of control and 105 % of control

O=C(O)c1cc(Br)c(Br)s1
inactive: dose: 50.0 mg/kg/injection, schedule: Q01DX009 (ip), vehicle: saline with Tween-80 98 % of control | [20] 105 % of control

O=C(CCl)N1C(=O)CC(c2ccccc2)C1=O (stereo unspecified)
inactive: dose: 100.0 mg/kg/injection, schedule: Q04DX002 (ip), vehicle: saline with Tween-80 101 % of control | dose: 200.0 mg/kg/injection, schedule: Q04DX002 (ip), vehicle: saline with Tween-80 97 % of control | dose: 400.0 mg/kg/injection, schedule: Q04DX002 (ip), vehicle: saline with Tween-80 95 % of control

Nc1nc(O)c(NC(=O)Nc2ccccc2)c(=O)[nH]1
inactive: dose: 100.0 mg/kg/injection, schedule: Q04DX003 (ip), vehicle: gum acacia 102 % of control | dose: 200.0 mg/kg/injection, schedule: Q04DX003 (ip), vehicle: gum acacia 100 % of control | dose: 400.0 mg/kg/injection, schedule: Q04DX003 (ip), vehicle: gum acacia 105 % of control

O=C(OCCNC(=O)N1CCOCC1)OCCNC(=O)N1CCOCC1
inactive: [7] 100 % of control | [8] 100 % of control | [16] 106 % of control

Nc1ccn(CC(=O)c2ccco2)c(=O)n1
inactive: [17] 111 % of control | [18] 111 % of control and 90 % of control | [7] 104 % of control | [19] 105 % of control | [8] 97 % of control

COc1ccc(/C=C2\N=C(c3ccc([N+](=O)[O-])cc3)OC2=O)cc1Br
inactive: dose: 100.0 mg/kg/injection, schedule: Q04DX002 (ip), vehicle: saline 101 % of control | dose: 200.0 mg/kg/injection, schedule: Q04DX002 (ip), vehicle: saline 104 % of control | dose: 400.0 mg/kg/injection, schedule: Q04DX002 (ip), vehicle: saline 115 % of control

Cc1ccc(S(=O)(=O)OCCN(CCO)c2cn(C(c3ccccc3)(c3ccccc3)c3ccccc3)c(=O)n(C(c3ccccc3)(c3ccccc3)c3ccccc3)c2=O)cc1
inactive: dose: 50.0 mg/kg/injection, schedule: Q01DX001 (ip), vehicle: saline 93 % of control | [13] 93 % of control | [14] 93 % of control

CN(c1ccccc1)[N+](=O)[O-]
inactive: [1] 94 % of control | [2] 97 % of control | [3] 97 % of control

Clc1ccc(C2=Nc3c(Cl)ncnc3SC2)cc1
inactive: dose: 100.0 mg/kg/injection, schedule: Q01DX001 (ip), vehicle: saline with Tween-80 106 % of control | [20] 94 % of control | dose: 200.0 mg/kg/injection, schedule: Q01DX001 (ip), vehicle: saline with Tween-80 101 % of control | dose: 200.0 mg/kg/injection, schedule: Q01DX009 (ip), vehicle: saline with Tween-80 99 % of control | dose: 400.0 mg/kg/injection, schedule: Q01DX001 (ip), vehicle: saline with Tween-80 98 % of control | dose: 400.0 mg/kg/injection, schedule: Q01DX009 (ip), vehicle: saline with Tween-80 94 % of control

CCCCNc1nc(N)nc2c1nnn2C1OC(CO)C(O)C1O (stereo unspecified)
inactive: [13] 107 % of control | [14] 101 % of control | [15] 107 % of control

CCOC(=O)COCc1ccccc1
inactive: dose: 25.0 mg/kg/injection, schedule: Q01DX009 (ip), vehicle: saline sonified 98 % of control | dose: 50.0 mg/kg/injection, schedule: Q01DX009 (ip), vehicle: saline sonified 93 % of control | dose: 100.0 mg/kg/injection, schedule: Q01DX009 (ip), vehicle: saline sonified 98 % of control | dose: 100.0 mg/kg/injection, schedule: Q04DX003 (ip), vehicle: saline sonified 97 % of control | dose: 176.0 mg/kg/injection, schedule: Q04DX003 (ip), vehicle: saline sonified 98 % of control | dose: 200.0 mg/kg/injection, schedule: Q04DX003 (ip), vehicle: saline sonified 90 % of control | dose: 264.0 mg/kg/injection, schedule: Q04DX003 (ip), vehicle: saline sonified 91 % of control | dose: 400.0 mg/kg/injection, schedule: Q04DX003 (ip), vehicle: saline sonified 104 % of control

CCOC(=O)c1ccc(NC(=O)Nc2cc(C(F)(F)F)ccc2Cl)cc1
inactive: [9] 100 % of control | [10] 104 % of control | [11] 95 % of control
